According to patent publication US20190185518A9, “WARHEAD-CONTAINING PEPTIDOMIMETIC MACROCYCLES AS MODULATORS OF BFL-1” (AILERON Therapeutics, Inc., priority 2017, published 2019):
Like-named read-outs stand apart in the source and are kept apart here. Positions of bridges follow the written chain, without caps; N, C: chain ends. Non-standard residues stand in square brackets, D forms with d. Residues, ends and D or L forms follow the SMILES beside them. R8 = C=CCCCCCC[C@@](C)(N)C(=O)O; Cit = NC(=O)NCCC[C@H](N)C(=O)O; S5 = C=CCCC[C@](C)(N)C(=O)O

Legend:
Mcl-1 = Mcl-1 (Homo sapiens, UniProt Q07820); test: Ki determination for Mcl-1 (BCL-2 family binding spectrum); details: read-out: Mcl-1 Ki
Summary of the method: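 Competitive fluorescence polarization assay in which compounds displace a fluoresceinated peptidomimetic macrocycle tracer from Mcl-1. Affinity constants were obtained by nonlinear regression.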

Mcl-1, Bcl-xL, Bcl-2 = test: BCL-2 family selectivity profile; format: binding
Excerpt: The binding spectrum of stapled BIM BH3 peptides were tuned for BCL-2 family selectivity. […] ABT-199 is venetoclax, and † represents values reported in the literature.

Bcl-xL = Bcl-xL (Homo sapiens, UniProt Q07817); test: Ki determination for Bcl-xL (BCL-2 family binding spectrum); details: TABLE 6; read-out: Bcl-xL Ki
Summary of the method: (§1)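 Competitive fluorescence polarization: compounds (1 nM–1 mM) with 25 nM fluoresceinated peptidomimetic macrocycle and 50 nM protein in 140 mM NaCl, 50 mM Tris-HCl pH 7.4, 30 min at room temperature. Constants from nonlinear regression.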

Bcl-2 = Bcl-2 (Homo sapiens, UniProt P10415); test: Ki determination for Bcl-2 (BCL-2 family binding spectrum); details: TABLE 6; read-out: Bcl-2 Ki
Summary of the method: as §1

Bcl-xL, sequence (Q07817 whole entry, species assumed): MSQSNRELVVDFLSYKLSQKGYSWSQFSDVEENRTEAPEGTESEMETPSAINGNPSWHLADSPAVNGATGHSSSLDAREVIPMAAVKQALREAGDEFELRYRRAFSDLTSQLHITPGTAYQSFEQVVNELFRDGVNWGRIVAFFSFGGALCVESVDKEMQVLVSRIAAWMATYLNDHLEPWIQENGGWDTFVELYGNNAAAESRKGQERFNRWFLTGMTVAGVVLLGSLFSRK
Bcl-2, sequence (P10415 whole entry, species assumed): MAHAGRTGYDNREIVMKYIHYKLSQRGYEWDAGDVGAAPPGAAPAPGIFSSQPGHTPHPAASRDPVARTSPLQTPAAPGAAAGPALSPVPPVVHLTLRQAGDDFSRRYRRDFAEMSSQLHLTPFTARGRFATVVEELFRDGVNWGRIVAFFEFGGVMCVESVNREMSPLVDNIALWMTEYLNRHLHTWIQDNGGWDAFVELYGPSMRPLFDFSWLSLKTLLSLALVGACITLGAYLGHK
Mcl-1, sequence (Q07820 whole entry, species assumed): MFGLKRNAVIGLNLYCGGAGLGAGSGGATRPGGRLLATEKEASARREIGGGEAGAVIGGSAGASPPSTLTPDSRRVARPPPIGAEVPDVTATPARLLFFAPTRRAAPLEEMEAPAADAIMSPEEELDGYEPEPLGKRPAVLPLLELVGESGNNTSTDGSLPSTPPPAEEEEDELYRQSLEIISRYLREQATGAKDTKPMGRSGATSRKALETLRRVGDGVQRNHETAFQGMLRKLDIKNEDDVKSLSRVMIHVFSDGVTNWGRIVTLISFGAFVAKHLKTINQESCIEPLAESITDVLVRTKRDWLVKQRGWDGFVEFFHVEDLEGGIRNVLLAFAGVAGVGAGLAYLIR

Compound | Ki (Mcl-1; TABLE 6) | Profile (Mcl-1, Bcl-xL, Bcl-2; TABLE 6) | Ki (Bcl-xL) | Ki (Bcl-2) | Ki (Mcl-1; TABLE 8) | Profile (Mcl-1, Bcl-xL, Bcl-2; TABLE 8)
CC[C@H](C)[C@H](NC(C)=O)C(=O)N[C@@H](Cc1c[nH]c2ccccc12)C(=O)N[C@H](C(=O)N[C@@H](C)C(=O)N[C@@H](CCC(N)=O)C(=O)N[C@@H](C)C(=O)N[C@@H](CC(C)C)C(=O)N[C@@H](CCCNC(=N)N)C(=O)N[C@]1(C)CCCCCCC=CCCC[C@@](C)(C(=O)N[C@@H](Cc2ccc(O)cc2)C(=O)N[C@@H](Cc2ccc(O)cc2)C(=O)N[C@@H](C)C(N)=O)NC(=O)[C@H](CC(N)=O)NC(=O)[C@H](C)NC(=O)[C@H](CCC(N)=O)NC(=O)[C@H](CC(=O)O)NC(=O)CNC(=O)[C@H]([C@@H](C)CC)NC1=O)[C@@H](C)CC [compound 8] (Ac-IWIAQALR[R8]IGDQAN[S5]YYA-NH2; staple 9-16) | 1.4 nM | Mcl-1 selective |  |  |  | 
CC[C@H](C)[C@H](NC(C)=O)C(=O)N[C@@H](Cc1c[nH]c2ccccc12)C(=O)N[C@H](C(=O)N[C@@H](C)C(=O)N[C@@H](CCC(N)=O)C(=O)N[C@@H](C)C(=O)N[C@@H](CC(C)C)C(=O)N[C@@H](C)C(=O)N[C@]1(C)CCCCCCC=CCCC[C@@](C)(C(=O)N[C@@H](Cc2ccc(O)cc2)C(=O)N[C@@H](Cc2ccc(O)cc2)C(=O)N[C@@H](C)C(N)=O)NC(=O)[C@H](CC(N)=O)NC(=O)[C@H](Cc2ccccc2)NC(=O)[C@H](C)NC(=O)[C@H](CC(=O)O)NC(=O)CNC(=O)[C@H]([C@@H](C)CC)NC1=O)[C@@H](C)CC [compound 11] (Ac-IWIAQALA[R8]IGDAFN[S5]YYA-NH2; staple 9-16) | 73.8 nM | negative control | 386 nM |  |  | 
CC[C@H](C)[C@H](NC(C)=O)C(=O)N[C@@H](Cc1c[nH]c2ccccc12)C(=O)N[C@H](C(=O)N[C@@H](C)C(=O)N[C@@H](C)C(=O)N[C@@H](C)C(=O)N[C@@H](CC(C)C)C(=O)N[C@@H](CCCNC(=N)N)C(=O)N[C@]1(C)CCCCCCC=CCCC[C@@](C)(C(=O)N[C@@H](Cc2ccc(O)cc2)C(=O)N[C@@H](Cc2ccc(O)cc2)C(=O)N[C@@H](C)C(N)=O)NC(=O)[C@H](CC(N)=O)NC(=O)[C@H](Cc2ccccc2)NC(=O)[C@H](CCC(=O)O)NC(=O)[C@H](CC(=O)O)NC(=O)CNC(=O)[C@H]([C@@H](C)CC)NC1=O)[C@@H](C)CC [compound 3] (Ac-IWIAAALR[R8]IGDEFN[S5]YYA-NH2; staple 9-16) | 1 nM | Pan-selective | 1 nM | 6 nM |  | 
CC[C@H](C)[C@H](NC(C)=O)C(=O)N[C@@H](Cc1c[nH]c2ccccc12)C(=O)N[C@H](C(=O)N[C@@H](C)C(=O)N[C@@H](CCC(N)=O)C(=O)N[C@@H](C)C(=O)N[C@@H](CC(C)C)C(=O)N[C@@H](CCCNC(=N)N)C(=O)N[C@]1(C)CCCCCCC=CCCC[C@@](C)(C(=O)N[C@@H](Cc2ccc(O)cc2)C(=O)N[C@@H](Cc2ccc(O)cc2)C(=O)N[C@@H](C)C(N)=O)NC(=O)[C@H](CC(N)=O)NC(=O)[C@H](C)NC(=O)[C@H](C)NC(=O)[C@H](CC(=O)O)NC(=O)CNC(=O)[C@H]([C@@H](C)CC)NC1=O)[C@@H](C)CC [compound 7] (Ac-IWIAQALR[R8]IGDAAN[S5]YYA-NH2; staple 9-16) | 7.5 nM | Mcl-1 selective | 402 nM | 140 nM |  | 
CC[C@H](C)[C@H](NC(C)=O)C(=O)N[C@@H](Cc1c[nH]c2ccccc12)C(=O)N[C@H](C(=O)N[C@@H](C)C(=O)N[C@@H](CCC(N)=O)C(=O)N[C@@H](C)C(=O)N[C@@H](CC(C)C)C(=O)N[C@@H](CCCNC(=N)N)C(=O)N[C@]1(C)CCCCCCC=CCCC[C@@](C)(C(=O)N[C@@H](Cc2ccc(O)cc2)C(=O)N[C@@H](Cc2ccc(O)cc2)C(=O)N[C@@H](C)C(N)=O)NC(=O)[C@H](CC(N)=O)NC(=O)[C@H](Cc2ccccc2)NC(=O)[C@H](C)NC(=O)[C@H](CC(N)=O)NC(=O)CNC(=O)[C@H]([C@@H](C)CC)NC1=O)[C@@H](C)CC [compound 12] (Ac-IWIAQALR[R8]IGNAFN[S5]YYA-NH2; staple 9-16) |  | negative control |  |  |  | 
CC[C@H](C)[C@H](NC(C)=O)C(=O)N[C@@H](Cc1c[nH]c2ccccc12)C(=O)N[C@H](C(=O)N[C@@H](C)C(=O)N[C@@H](CCC(N)=O)C(=O)N[C@@H](C)C(=O)N[C@@H](CC(C)C)C(=O)N[C@@H](CCCNC(=N)N)C(=O)N[C@]1(C)CCCCCCC=CCCC[C@@](C)(C(=O)N[C@@H](Cc2ccc(O)cc2)C(=O)N[C@@H](Cc2ccc(O)cc2)C(=O)N[C@@H](C)C(N)=O)NC(=O)[C@H](CC(N)=O)NC(=O)[C@H](Cc2ccccc2)NC(=O)[C@H](CCC(=O)O)NC(=O)[C@H](CC(=O)O)NC(=O)CNC(=O)[C@H]([C@@H](C)CC)NC1=O)[C@@H](C)CC [Peptide #1] (Ac-IWIAQALR[R8]IGDEFN[S5]YYA-NH2; staple 9-16) | 1.8 nM | Pan-selective | 1.4 nM | 3.2 nM |  | 
CC[C@H](C)[C@H](NC(C)=O)C(=O)N[C@@H](Cc1c[nH]c2ccccc12)C(=O)N[C@H](C(=O)N[C@@H](C)C(=O)N[C@@H](CCC(N)=O)C(=O)N[C@@H](C)C(=O)N[C@@H](CC(C)C)C(=O)N[C@@H](CCCNC(=N)N)C(=O)N[C@]1(C)CCCCCCC=CCCC[C@@](C)(C(=O)N[C@@H](Cc2ccc(O)cc2)C(=O)N[C@@H](Cc2ccc(O)cc2)C(=O)N[C@@H](C)C(N)=O)NC(=O)[C@H](CC(N)=O)NC(=O)[C@H](Cc2ccccc2)NC(=O)[C@H](CCC(N)=O)NC(=O)[C@H](CC(=O)O)NC(=O)[C@H](C)NC(=O)[C@H]([C@@H](C)CC)NC1=O)[C@@H](C)CC [compound 9] (Ac-IWIAQALR[R8]IADQFN[S5]YYA-NH2; staple 9-16) |  | Bcl-xL/Bcl-2 selective | 7.7 nM | 25.6 nM |  | 
CC[C@H](C)[C@H](NC(C)=O)C(=O)N[C@@H](Cc1c[nH]c2ccccc12)C(=O)N[C@H](C(=O)N[C@@H](C)C(=O)N[C@@H](CCC(N)=O)C(=O)N[C@@H](C)C(=O)N[C@@H](C)C(=O)N[C@@H](CCCNC(=N)N)C(=O)N[C@]1(C)CCCCCCC=CCCC[C@@](C)(C(=O)N[C@@H](Cc2ccc(O)cc2)C(=O)N[C@@H](Cc2ccc(O)cc2)C(=O)N[C@@H](C)C(N)=O)NC(=O)[C@H](CC(N)=O)NC(=O)[C@H](Cc2ccccc2)NC(=O)[C@H](C)NC(=O)[C@H](CC(=O)O)NC(=O)CNC(=O)[C@H]([C@@H](C)CC)NC1=O)[C@@H](C)CC [compound 13] (Ac-IWIAQAAR[R8]IGDAFN[S5]YYA-NH2; staple 9-16) |  | negative control |  |  |  | 
CC[C@H](C)[C@H](NC(C)=O)C(=O)N[C@@H](Cc1c[nH]c2ccccc12)C(=O)N[C@H](C(=O)N[C@@H](C)C(=O)N[C@@H](C)C(=O)N[C@@H](C)C(=O)N[C@@H](CC(C)C)C(=O)N[C@@H](CCCNC(=N)N)C(=O)N[C@]1(C)CCCCCCC=CCCC[C@@](C)(C(=O)N[C@@H](Cc2ccc(O)cc2)C(=O)N[C@@H](Cc2ccc(O)cc2)C(=O)N[C@@H](C)C(N)=O)NC(=O)[C@H](CC(N)=O)NC(=O)[C@H](Cc2ccccc2)NC(=O)[C@H](CCC(N)=O)NC(=O)[C@H](CC(=O)O)NC(=O)CNC(=O)[C@H]([C@@H](C)CC)NC1=O)[C@@H](C)CC [compound 4] (Ac-IWIAAALR[R8]IGDQFN[S5]YYA-NH2; staple 9-16) | 6 nM | Pan-selective | 4 nM | 22 nM |  | 
CC[C@H](C)[C@H](NC(C)=O)C(=O)N[C@@H](Cc1c[nH]c2ccccc12)C(=O)N[C@H](C(=O)N[C@@H](C)C(=O)N[C@@H](CCC(N)=O)C(=O)N[C@@H](C)C(=O)N[C@@H](CC(C)C)C(=O)N[C@@H](CCCNC(=N)N)C(=O)N[C@]1(C)CCCCCCC=CCCC[C@@](C)(C(=O)N[C@@H](Cc2ccc(O)cc2)C(=O)N[C@@H](Cc2ccc(O)cc2)C(=O)N[C@@H](C)C(N)=O)NC(=O)[C@H](CC(N)=O)NC(=O)[C@H](Cc2ccccc2)NC(=O)[C@H](CCC(N)=O)NC(=O)[C@H](CC(=O)O)NC(=O)CNC(=O)[C@H]([C@@H](C)CC)NC1=O)[C@@H](C)CC [compound 2] (Ac-IWIAQALR[R8]IGDQFN[S5]YYA-NH2; staple 9-16) | 5.2 nM | Pan-selective | 12 nM | 67 nM |  | 
CC[C@H](C)[C@H](NC(C)=O)C(=O)N[C@@H](Cc1c[nH]c2ccccc12)C(=O)N[C@H](C(=O)N[C@@H](C)C(=O)N[C@@H](CCC(N)=O)C(=O)N[C@@H](C)C(=O)N[C@@H](CC(C)C)C(=O)N[C@@H](CCCNC(N)=O)C(=O)N[C@]1(C)CCCCCCC=CCCC[C@@](C)(C(=O)N[C@@H](Cc2ccc(O)cc2)C(=O)N[C@@H](Cc2ccc(O)cc2)C(=O)N[C@@H](C)C(N)=O)NC(=O)[C@H](CC(N)=O)NC(=O)[C@H](Cc2ccccc2)NC(=O)[C@H](CCC(N)=O)NC(=O)[C@H](CC(=O)O)NC(=O)CNC(=O)[C@H]([C@@H](C)CC)NC1=O)[C@@H](C)CC [compound 6] (Ac-IWIAQAL[Cit][R8]IGDQFN[S5]YYA-NH2; staple 9-16) | 1.7 nM | Mcl-1 selective | 28.8 nM | 88.2 nM |  | 
CC[C@H](C)[C@H](NC(C)=O)C(=O)N[C@@H](Cc1c[nH]c2ccccc12)C(=O)N[C@H](C(=O)N[C@@H](C)C(=O)N[C@@H](CCC(N)=O)C(=O)N[C@@H](C)C(=O)N[C@@H](CC(C)C)C(=O)N[C@@H](CCCNC(=N)N)C(=O)N[C@]1(C)CCCCCCC=CCCC[C@@](C)(C(=O)N[C@@H](Cc2ccc(O)cc2)C(=O)N[C@@H](Cc2ccc(O)cc2)C(=O)N[C@@H](C)C(=O)N[C@@H](CCCNC(=N)N)C(=O)N[C@@H](CCCNC(=N)N)C(N)=O)NC(=O)[C@H](CC(N)=O)NC(=O)[C@H](Cc2ccccc2)NC(=O)[C@H](CCC(=O)O)NC(=O)[C@H](CC(=O)O)NC(=O)CNC(=O)[C@H]([C@@H](C)CC)NC1=O)[C@@H](C)CC [Peptide #15] (Ac-IWIAQALR[R8]IGDEFN[S5]YYARR-NH2; staple 9-16) |  |  |  |  | 10.6 nM | Pan-selective
